Reference: patent publication US8026257B2 (Bristol-Myers Squibb Company, priority 2007, dated 2011)

Experiments:
NK-1 = biological target: T1, NK-1 (Homo sapiens, UniProt P25103); test: NK1 radioligand binding assay ([125I]Substance P, U373 membranes); settings: U373 cell membranes, 200 pM [125I]Substance P, 1 hour at room temperature
T1 construct: 30 ul/well of a 2×U373 membrane preparation
Experimental: (§1) NK-1 Binding assay. Crude membrane suspensions were prepared for the NK1 and SERT radioligand binding assays from U373 cells or recombinant HEK-293 cells expressing hSERT, respectively. Cells were harvested from T-175 flasks as follows. The medium is removed from the flasks and the cells rinsed with HBSS without Ca and without Mg. The cells are then incubated for 5-10 minutes in 10 mM Tris-Cl, pH 7.5, 5 mM EDTA before the cells are lifted with a combination of pipetting and scraping, as needed. To prepare membranes, the cell suspension is collected into centrifuge bottles and homogenized for 30 seconds with a Polytron homogenizer. The suspension is centrifuged for 30 min@32,000×g, 4° C., then the supernatant is decanted and the pellet resuspended and homogenized in 50 mM Tris-Cl, pH 7.5, 1 mM EDTA for 10 seconds. The suspension is then centrifuged again for 30 min@32,000×g, 4° C. The supernatant is decanted and the pellet resuspended in 50 mM Tris-Cl, pH 7.5, 1 mM EDTA and briefly homogenized. A Bradford assay (Bio-rad) is performed and the membrane preparation diluted to 2 mg/ml with 50 mM Tris-Cl, pH 7.5, 1 mM EDTA. Aliquots are prepared, and then frozen and stored at −80° C.
NK1 radioligand binding assay. Compounds are dissolved in 100% DMSO at a concentration 100× the desired highest assay concentration, serially diluted 1:3 in 100% DMSO, and 0.6 ul/well of each solution is dispensed to a Nunc polypropylene, round bottom, 384 well plate. 100% inhibition is defined with 0.6 ul/well of 1 mM L-733,060 (Sigma L-137) dissolved in DMSO. 30 ul/well of a 2×U373 membrane preparation (267 ug/ml in 100 mM Tris-Cl, pH 7.5, 6 mM MgCl2, 0.2% (v/v) Sigma mammalian protease inhibitor cocktail (Sigma P-8340), and 4 ug/ml chymostatin, Sigma C-7268) and 30 ul/well of a 2× radioligand solution (400 pM [^125I]Substance P (Perkin ElmerNEX-190) in 1% (w/v) BSA (Sigma A-2153), 0.1 mg/ml bacitracin, Sigma B-0125) are added to the well and the reaction incubated for 1 hour at room temperature. The contents of the assay plate are then transferred to a Millipore MultiscreenHTS GF/B filter plate which has been pretreated with 0.5% PEI for at least one hour. The plate is vacuum filtered and washed with 7 washes of 100 ul/well of 20 mM Tris-Cl, pH 7.5, 0.5% (w/v) BSA chilled to 4° C. The filtration and washing is completed in less than 90 s. The plates are air-dried overnight, 12 ul/well of MicroScint scintillation fluid added, and the plates counted in a Trilux.
(§2) Data analysis. The raw data are normalized to percent inhibition using control wells defining 0% (DMSO only) and 100% (selective inhibitor) inhibition which are run on each plate. Each plate is run in triplicate, and the concentration response curve thus generated is fit using the four-parameter dose response equation, Y=Bottom+(Top-Bottom)/(1+10^((LogIC50−X)*HillSlope)) in order to determine the IC50 value for each compound. The radioligand concentration chosen for each assay corresponds to the Kd concentration determined through saturation binding analysis for each assay.

hSERT = hSERT (Homo sapiens, UniProt P31645); test: SERT radioligand binding assay ([125I]RTI-55, HEK-hSERT membranes); settings: HEK-293 hSERT membranes, 260 pM [125I]RTI-55, 1 hour at room temperature; read-out: SERT IC50
Experimental: as §1
SERT radioligand binding assay. Compounds are dissolved in 100% DMSO at a concentration 100× the desired highest assay concentration, serially diluted 1:3 in 100% DMSO, and 0.4 ul/well of each solution is dispensed to a Nunc polypropylene, round bottom, 384 well plate. 100% inhibition is defined with 0.4 ul/well of 1 mM fluoxetine (Sigma F-132) dissolved in DMSO. 20 ul/well of a 2× HEK-hSERT membrane preparation (15 ug/ml in 50 mM Tris-Cl, pH 7.5, 120 mM NaCl, 5mM KCl) and 20 ul/well of a 2× radioligand solution (520 pM [^125I]RTI-55 (Perkin-Elmer NEX-272) in 50 mM Tris-Cl, pH 7.5, 120 mM NaCl, 5mM KCl) are added to each well and the reaction incubated for 1 hour at room temperature. The contents of the assay plate are then transferred to a Millipore MultiscreenHTs GF/B filter plate which has been pretreated with 0.5% PEI for at least one hour. The plate is vacuum filtered and washed with 7 washes of 100 ul/well of 50 mM Tris-Cl, pH 7.5, 120 mM NaCl, 5 mM KCl chilled to 4° C. The filtration and washing is completed in less than 90 s. The plates are air-dried overnight, 12 ul/well of MicroScint scintillation fluid added, and the plates counted in a Trilux.
as §2

Sequence of hSERT (P31645 whole entry): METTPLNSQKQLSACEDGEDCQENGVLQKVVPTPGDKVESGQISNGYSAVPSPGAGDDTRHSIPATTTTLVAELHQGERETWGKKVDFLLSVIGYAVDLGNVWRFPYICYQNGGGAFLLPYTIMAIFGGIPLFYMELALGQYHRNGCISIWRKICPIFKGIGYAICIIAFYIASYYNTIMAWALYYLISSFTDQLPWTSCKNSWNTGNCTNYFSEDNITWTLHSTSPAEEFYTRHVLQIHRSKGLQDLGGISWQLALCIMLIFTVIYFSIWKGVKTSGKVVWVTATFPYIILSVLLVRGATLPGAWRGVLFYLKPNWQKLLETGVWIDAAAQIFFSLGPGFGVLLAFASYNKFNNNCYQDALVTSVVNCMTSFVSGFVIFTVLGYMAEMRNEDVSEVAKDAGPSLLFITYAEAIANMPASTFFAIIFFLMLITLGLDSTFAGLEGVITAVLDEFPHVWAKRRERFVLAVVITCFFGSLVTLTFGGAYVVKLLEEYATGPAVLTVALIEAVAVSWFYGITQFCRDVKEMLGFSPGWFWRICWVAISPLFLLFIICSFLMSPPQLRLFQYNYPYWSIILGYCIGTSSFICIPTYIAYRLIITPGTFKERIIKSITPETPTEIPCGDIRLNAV
T1 sequence (P25103 whole entry): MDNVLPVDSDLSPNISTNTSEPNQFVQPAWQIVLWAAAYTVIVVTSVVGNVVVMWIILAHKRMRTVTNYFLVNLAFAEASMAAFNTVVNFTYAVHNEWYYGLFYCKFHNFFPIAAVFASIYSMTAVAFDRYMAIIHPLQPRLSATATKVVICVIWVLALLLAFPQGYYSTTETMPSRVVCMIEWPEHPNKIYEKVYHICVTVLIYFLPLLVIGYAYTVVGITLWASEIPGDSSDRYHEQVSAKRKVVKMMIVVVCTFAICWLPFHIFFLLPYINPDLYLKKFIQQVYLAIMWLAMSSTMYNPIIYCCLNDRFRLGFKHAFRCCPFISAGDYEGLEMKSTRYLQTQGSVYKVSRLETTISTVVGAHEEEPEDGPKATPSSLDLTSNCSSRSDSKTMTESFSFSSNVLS

**Q.** How did the IC50 (NK-1) turn out when `CC(OCC1(c2ccccc2)CCNCC1)c1cc(C(F)(F)F)cc2cn[nH]c12` (racemic) [Example 20, (±)-7-(1-((4-Phenylpiperidin-4-yl)methoxy)ethyl)-5-(trifluoromethyl)-1H-indazole] was run?
**A.** 0.01 to 100 nM

**Q.** What about the IC50 (hSERT) of the same compound?
**A.** 0.01 to 100 nM

**Q.** With `CC(OCC1(c2ccccc2)CCN(C)CC1)c1cc(C(F)(F)F)cc2cn[nH]c12` (racemic) [Example 21, (±)-7-(1-((1-Methyl-4-phenylpiperidin-4-yl)methoxy)ethyl)-5-(trifluoromethyl)-1H-indazole] as the compound, how does the IC50 (NK-1) read?
**A.** 0.01 to 100 nM

**Q.** And the IC50 (hSERT)?
**A.** 0.01 to 100 nM

**Q.** `CC(OCC1(c2ccccc2)CCNCC1)c1cc(Cl)cc2cn[nH]c12` (racemic) [Example 38, (±)-5-Chloro-7-(1-((4-phenylpiperidin-4-yl)methoxy)ethyl)-1H-indazole] was tested. Which IC50 (NK-1) did it give?
**A.** 0.01 to 100 nM

**Q.** And the IC50 (hSERT)?
**A.** 0.01 to 100 nM

**Q.** Which IC50 (NK-1) does the source give for `CC(OCC1(c2ccccc2)CCN(C)CC1)c1cc(Cl)cc2cn[nH]c12` (racemic) [Example 39, (±)-5-Chloro-7-(1-((1-methyl-4-phenylpiperidin-4-yl)methoxy)ethyl)-1H-indazole] here?
**A.** 0.01 to 100 nM

**Q.** What about the IC50 (hSERT) of the same compound?
**A.** 0.01 to 100 nM

**Q.** What does the source list for `CC(OCC1(c2ccccc2)CCNCC1)c1cc(Cl)cc2cnn(C)c12` (racemic) [Example 40, (±)-5-Chloro-1-methyl-7-(1-((4-phenylpiperidin-4-yl)methoxy)ethyl)-1H-indazole]?
**A.** IC50 (NK-1): 0.01 to 100 nM; IC50 (hSERT): 0.01 to 100 nM

**Q.** What does the source list for `CC(OCC1(c2ccccc2)CCN(C)CC1)c1cc(C(F)(F)F)cc2c(C#N)n[nH]c12` (racemic) [Example 42, (±)-7-(1-((1-methyl-4-phenylpiperidin-4-yl)methoxy)ethyl)-5-(trifluoromethyl)-1H-indazole-3-carbonitrile]?
**A.** IC50 (NK-1): 0.01 to 100 nM; IC50 (hSERT): 100 to 300 nM

**Q.** `Cc1n[nH]c2c(C(C)OCC3(c4ccccc4)CCNCC3)cc(C(F)(F)F)cc12` (racemic) [Example 43, (±)-3-Methyl-7-(1-((4-phenylpiperidin-4-yl)methoxy)ethyl)-5-(trifluoromethyl)-1H-indazole] was tested. Which IC50 (NK-1) did it give?
**A.** 0.01 to 100 nM

**Q.** What about the IC50 (hSERT) of the same compound?
**A.** 0.01 to 100 nM

**Q.** With `Cc1n[nH]c2c(C(C)OCC3(c4ccccc4)CCN(C)CC3)cc(C(F)(F)F)cc12` (racemic) [Example 44, (±)-3-Methyl-7-(1-((1-methyl-4-phenylpiperidin-4-yl)methoxy)ethyl)-5-(trifluoromethyl)-1H-indazole] as the compound, how does the IC50 (NK-1) read?
**A.** 0.01 to 100 nM

**Q.** What about the IC50 (hSERT) of the same compound?
**A.** 0.01 to 100 nM

**Q.** For `CC(OCC1(c2ccc(F)cc2)CCN(C)CC1)c1cc(Br)cc2cn[nH]c12` (racemic) [Example 46, (±)-5-Bromo-7-(1-((4-(4-fluorophenyl)-1-methylpiperidin-4-yl)methoxy)ethyl)-1H-indazole], which IC50 (NK-1) is on record?
**A.** 0.01 to 100 nM

**Q.** And the IC50 (hSERT)?
**A.** 0.01 to 100 nM

**Q.** How did the IC50 (NK-1) turn out when `CC(OCC1(c2ccc(F)cc2)CCN(C)CC1)c1cc(C2CC2)cc2cn[nH]c12` (racemic) [Example 47, (±)-5-Cyclopropyl-7-(1-((4-(4-fluorophenyl)-1-methylpiperidin-4-yl)methoxy)ethyl)-1H-indazole] was run?
**A.** 0.01 to 100 nM

**Q.** What about the IC50 (hSERT) of the same compound?
**A.** 0.01 to 100 nM

**Q.** How did the IC50 (NK-1) turn out when `CC(OCC1(c2ccc(F)cc2)CCN(C)CC1)c1cc(C#N)cc2cn[nH]c12` (racemic) [Example 48, (±)-7-(1-((4-(4-Fluorophenyl)-1-methylpiperidin-4-yl)methoxy)ethyl)-1H-indazole-5-carbonitrile] was run?
**A.** 0.01 to 100 nM

**Q.** What about the IC50 (hSERT) of the same compound?
**A.** 0.01 to 100 nM

**Q.** For `Cc1cc(C(C)OCC2(c3ccc(F)cc3)CCN(C)CC2)c2[nH]ncc2c1` (racemic) [Example 49, (±)-7-(1-((4-(4-Fluorophenyl)-1-methylpiperidin-4-yl)methoxy)ethyl)-5-methyl-1H-indazole], which IC50 (NK-1) is on record?
**A.** 0.01 to 100 nM

**Q.** What about the IC50 (hSERT) of the same compound?
**A.** 0.01 to 100 nM

**Q.** How did the IC50 (NK-1) turn out when `CC(OCC1(c2ccc(F)cc2)CCN(C)CC1)c1cc(N2CCOCC2)cc2cn[nH]c12` (racemic) [Example 50, (±)-4-7-(1-((4-(4-Fluorophenyl)-1-methylpiperidin-4-yl)methoxy)ethyl)-1H-indazole-5-yl)morpholino] was run?
**A.** 100 to 300 nM

**Q.** What about the IC50 (hSERT) of the same compound?
**A.** 0.01 to 100 nM

**Q.** How did the IC50 (NK-1) turn out when `COc1cc(C(C)OCC2(c3ccc(F)cc3)CCN(C)CC2)c2[nH]ncc2c1` (racemic) [Example 52, (±)-7-(1-((4-(4-Fluorophenyl)-1-methylpiperidin-4-yl)methoxy)ethyl)-5-methoxy-1H-indazole] was run?
**A.** 0.01 to 100 nM

**Q.** And the IC50 (hSERT)?
**A.** 0.01 to 100 nM

**Q.** `CC(OCC1(c2ccc(F)cc2)CCN(C)CC1)c1cc(F)cc2cn[nH]c12` (racemic) [Example 53, (±)-5-Fluoro-7-(1-((4-(4-fluorophenyl)-1-methylpiperidin-4-yl)methoxy)ethyl)-1H-indazole] was tested. Which IC50 (NK-1) did it give?
**A.** 0.01 to 100 nM

**Q.** And the IC50 (hSERT)?
**A.** 0.01 to 100 nM

**Q.** How did the IC50 (NK-1) turn out when `Cc1n[nH]c2c(C(C)OCC3(c4ccc(F)cc4)CCN(C)CC3)cc(Cl)cc12` (racemic) [Example 55, (±)-5-Chloro-7-(1-((4-(4-fluorophenyl)-1-methylpiperidin-4-yl)methoxy)ethyl)-3-methyl-1H-indazole] was run?
**A.** 0.01 to 100 nM

**Q.** What about the IC50 (hSERT) of the same compound?
**A.** 0.01 to 100 nM

**Q.** `CC(OCC1(c2ccc(F)cc2)CCN(C)CC1)c1cc(Cl)cc2c(C3CC3)n[nH]c12` (racemic) [Example 56, (±)-5-Chloro-3-cyclopropyl-7-(1-((4-(4-fluorophenyl)-1-methylpiperidin-4-yl)methoxy)ethyl)-1H-indazole] was tested. Which IC50 (NK-1) did it give?
**A.** 0.01 to 100 nM

**Q.** And the IC50 (hSERT)?
**A.** 0.01 to 100 nM

**Q.** `CC(OCC1(c2ccc(F)cc2)CCN(C)CC1)c1cc(Cl)cc2c(Br)n[nH]c12` (racemic) [Example 57, (±)-3-Bromo-5-chloro-7-(1-((4-(4-fluorophenyl)-1-methylpiperidin-4-yl)methoxy)ethyl)-1H-indazole] was tested. Which IC50 (NK-1) did it give?
**A.** 0.01 to 100 nM

**Q.** And the IC50 (hSERT)?
**A.** 0.01 to 100 nM

**Q.** What does the source list for `CC(OCC1(c2ccc(F)cc2)CCN(C)CC1)c1cc(Cl)cc2cn(C3CC3)nc12` (racemic) [Example 58, (±)-5-Chloro-2-cyclopropyl-7-(1-((4-(4-fluorophenyl)-1-methylpiperidin-4-yl)methoxy)ethyl)-2H-indazole]?
**A.** IC50 (NK-1): 0.01 to 100 nM; IC50 (hSERT): 0.01 to 100 nM

**Q.** For `CC(OCC1(c2ccc(F)cc2)CCN(C)CC1)c1cc(Cl)cc2c(Cl)n[nH]c12` (racemic) [Example 59, (±)-3,5-Dichloro-7-(1-((4-(4-fluorophenyl)-1-methylpiperidin-4-yl)methoxy)ethyl)-1H-indazole], which IC50 (NK-1) is on record?
**A.** 0.01 to 100 nM

**Q.** And the IC50 (hSERT)?
**A.** 0.01 to 100 nM

**Q.** How did the IC50 (NK-1) turn out when `Cc1cc(C(C)OCC2(c3ccc(F)cc3)CCN(C)CC2)c2c(cnn2CC(F)F)c1` (racemic) [Example 60, (±)-1-(2,2-Difluoroethyl)-7-(1-((4-(4-fluorophenyl)-1-methylpiperidin-4-yl)methoxy)ethyl)-5-methyl-1H-indazole] was run?
**A.** 0.01 to 100 nM

**Q.** What about the IC50 (hSERT) of the same compound?
**A.** 0.01 to 100 nM

**Q.** How did the IC50 (NK-1) turn out when `C[C@@H](OCC1(c2ccc(F)cc2)CCN(C)CC1)c1cc(Cl)cc2c(Cl)n(CC(F)(F)F)nc12` [Example 117, (R)-3,5-dichloro-7-(1-((4-(4-fluorophenyl-1-methyl)piperidine-4-yl)methoxy)ethyl)-2-(2,2,2-trifluoroethyl)-1H-indazole] was run?
**A.** 0.01 to 100 nM
